The source of these data is PubChem BioAssay AID330 (DTP/NCI, 2004).

Where “and” joins values, the source holds several entries; their conditions need not be identical. Equal values may be shown once. Inconclusive results and toxic doses are left out.

This assay has as its system P388 leukemia ip, CD2F1 mice, survival T/C. The assay is described as follows: NCI In Vivo Anticancer Drug Screen. Data for tumor model P388 Leukemia (intraperitoneal) in CD2F1 (CDF1) mice. Particulars: endpoint: median survival time, higher = longer survival. In a few lines:
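Mice carrying the transplanted tumor received test compound or vehicle. Survival was recorded in each group, and the value is the treated-group measurement divided by that of the vehicle-treated control group.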

The mark [1] stands for this setting: dose: 50.0 mg/kg/injection, schedule: Q01DX009 (ip), vehicle: Klucel (hydroxypropylcellulose) (HPC).
[2] abbreviates: dose: 100.0 mg/kg/injection, schedule: Q01DX009 (ip), vehicle: Klucel (hydroxypropylcellulose) (HPC).
The mark [3] stands for this setting: dose: 50.0 mg/kg/injection, schedule: Q01DX005 (ip), vehicle: saline with Tween-80.
Where [4] appears, read: dose: 100.0 mg/kg/injection, schedule: Q01DX005 (ip), vehicle: saline with Tween-80.
[5] abbreviates: dose: 200.0 mg/kg/injection, schedule: Q01DX005 (ip), vehicle: saline with Tween-80.
The mark [6] stands for this setting: dose: 50.0 mg/kg/injection, schedule: Q01DX005 (ip), vehicle: Klucel (hydroxypropylcellulose) (HPC).
[7] abbreviates: dose: 100.0 mg/kg/injection, schedule: Q01DX005 (ip), vehicle: Klucel (hydroxypropylcellulose) (HPC).
The mark [8] stands for this setting: dose: 200.0 mg/kg/injection, schedule: Q01DX005 (ip), vehicle: Klucel (hydroxypropylcellulose) (HPC).
[9] abbreviates: dose: 50.0 mg/kg/injection, schedule: Q01DX005 (ip), vehicle: saline.
Setting [10] is: dose: 100.0 mg/kg/injection, schedule: Q01DX005 (ip), vehicle: saline.
[11] abbreviates: dose: 200.0 mg/kg/injection, schedule: Q01DX005 (ip), vehicle: saline.
[12] abbreviates: dose: 50.0 mg/kg/injection, schedule: Q01DX009 (ip), vehicle: saline with Tween-80.
[13] abbreviates: dose: 100.0 mg/kg/injection, schedule: Q01DX009 (ip), vehicle: saline with Tween-80.
Setting [14] is: dose: 200.0 mg/kg/injection, schedule: Q01DX009 (ip), vehicle: saline with Tween-80.

With `Nc1nc2ccc(CNc3ccc(C(=O)NC(CC(=O)O)C(=O)O)cc3)cc2c(=O)[nH]1` (configuration not stated), the T/C was 100 % of control (dose: 12.5 mg/kg/injection, schedule: Q01DX009 (ip), vehicle: Klucel (hydroxypropylcellulose) (HPC)); 96 % of control (dose: 25.0 mg/kg/injection, schedule: Q01DX009 (ip), vehicle: Klucel (hydroxypropylcellulose) (HPC)); 99 % of control and 103 % of control under setting [1]; 116 % of control under setting [2].

`O=C1CC2(CCc3ccccc32)C(=O)N1CCN1CCOCC1` (configuration not stated): the T/C by setting is: under setting [3], 100 % of control; under setting [4], 95 % of control; under setting [5], 105 % of control.

As for `COc1ccc(NC(=O)c2ccc3c(c2)OCO3)cc1`, the T/C (dose: 12.5 mg/kg/injection, schedule: Q01DX009 (ip), vehicle: other) was 108 % of control; the T/C (dose: 25.0 mg/kg/injection, schedule: Q01DX009 (ip), vehicle: other) is 103 % of control; the T/C (dose: 50.0 mg/kg/injection, schedule: Q01DX009 (ip), vehicle: other) is 94 % of control; the T/C (dose: 100.0 mg/kg/injection, schedule: Q01DX009 (ip), vehicle: other) was 95 % of control; the T/C (dose: 200.0 mg/kg/injection, schedule: Q01DX009 (ip), vehicle: other) is 91 % of control.

For the molecule `NC1=NC(=O)N2CC12` (configuration not stated), the T/C is, setting by setting: (dose: 50.0 mg/kg/injection, schedule: Q01DX009 (ip), vehicle: saline) 122 % of control; (dose: 100.0 mg/kg/injection, schedule: Q01DX009 (ip), vehicle: saline) 153 % of control and 158 % of control; (dose: 200.0 mg/kg/injection, schedule: Q01DX009 (ip), vehicle: saline) 100 % of control.

Consider `CC(=O)C1SCC[S+]1C` (configuration not stated), for which the T/C runs as follows: (dose: 15.0 mg/kg/injection, schedule: Q01DX005 (ip), vehicle: saline) 102 % of control; (dose: 30.0 mg/kg/injection, schedule: Q01DX005 (ip), vehicle: saline) 102 % of control; (dose: 60.0 mg/kg/injection, schedule: Q01DX005 (ip), vehicle: saline) 99 % of control and 106 % of control and 114 % of control.

For `CC(C)n1c(Cl)c(C=O)c2ccccc21`, the T/C was 94 % of control (dose: 100.0 mg/kg/injection, schedule: Q01DX001 (ip), vehicle: Klucel (hydroxypropylcellulose) (HPC)); 87 % of control (dose: 200.0 mg/kg/injection, schedule: Q01DX001 (ip), vehicle: Klucel (hydroxypropylcellulose) (HPC)); 98 % of control (dose: 400.0 mg/kg/injection, schedule: Q01DX001 (ip), vehicle: Klucel (hydroxypropylcellulose) (HPC)).

As for `COc1ccc(CC2C(=O)OC(C)C(NC(=O)C(CC(C)C)N(C)C(=O)C3CCCN3C(=O)C(C)O)C(=O)NC(C(C)C)C(O)CC(=O)OC(C(C)C)C(=O)C(C)C(=O)NC(CC(C)C)C(=O)N3CCCC3C(=O)N2C)cc1` (configuration not stated), the T/C runs as follows: (dose: 37.5 micrograms/kg/injection, schedule: Q01DX005 (ip), vehicle: distilled water + alcohol) 122 % of control; (dose: 250.0 micrograms/kg/injection, schedule: Q01DX005 (ip), vehicle: distilled water + alcohol) 160 % of control; (dose: 500.0 micrograms/kg/injection, schedule: Q01DX005 (ip), vehicle: distilled water + alcohol) 166 % of control.

`Cc1ccc(S(=O)(=O)Oc2ccc3oc4cccc(NCCN(C)C)c4c(=O)c3c2)cc1`: the T/C is, setting by setting: under setting [3], 95 % of control; under setting [4], 97 % of control; under setting [5], 93 % of control.

Take `COC(=O)CCSC(=O)NC(C)C`: the T/C is, setting by setting: under setting [6], 99 % of control; under setting [7], 102 % of control; under setting [8], 100 % of control.

For the molecule `COc1cccc(OC)c1OCCN1C(=O)c2ccccc2C1=O`, the T/C reads like this: under setting [1], 100 % of control; under setting [2], 100 % of control; (dose: 200.0 mg/kg/injection, schedule: Q01DX009 (ip), vehicle: Klucel (hydroxypropylcellulose) (HPC)) 105 % of control.

As to `NNC(=S)NCCN1CCOCC1`, the T/C was 105 % of control under setting [9], 105 % of control under setting [10] and 100 % of control under setting [11].

Regarding `Cc1c(N)nc(C(CC(N)=O)NCC(N)C(N)=O)nc1C(=O)NC(C(=O)NC(C)C(O)C(C)C(=O)NC(C(=O)NCCc1nc(-c2nc(C(=O)NCCCNC(C)c3ccccc3)cs2)cs1)C(C)O)C(OC1OC(CO)C(O)C(O)C1OC1OC(CO)C(O)C(OC(N)=O)C1O)c1cnc[nH]1` (configuration not stated), the T/C is 104 % of control and 95 % of control (dose: 0.25 mg/kg/injection, schedule: Q01DX009 (ip), vehicle: water); 100 % of control and 111 % of control and 88 % of control (dose: 0.5 mg/kg/injection, schedule: Q01DX009 (ip), vehicle: water); 103 % of control and 104 % of control and 118 % of control (dose: 1.0 mg/kg/injection, schedule: Q01DX009 (ip), vehicle: water); 100 % of control and 113 % of control (dose: 2.0 mg/kg/injection, schedule: Q01DX009 (ip), vehicle: water); 114 % of control and 118 % of control (dose: 4.0 mg/kg/injection, schedule: Q01DX009 (ip), vehicle: water); 100 % of control (dose: 8.0 mg/kg/injection, schedule: Q01DX009 (ip), vehicle: water).

Turning to `COc1cc(NC(C)CCCNC(C)C)c2ncccc2c1` (configuration not stated), the T/C is 100 % of control (dose: 6.25 mg/kg/injection, schedule: Q01DX005 (ip), vehicle: saline with Tween-80) and 100 % of control (dose: 12.5 mg/kg/injection, schedule: Q01DX005 (ip), vehicle: saline with Tween-80).

For the molecule `C=COS(=O)O`, the T/C reads like this: (dose: 3.12 mg/kg/injection, schedule: Q01DX009 (ip), vehicle: saline) 104 % of control; (dose: 6.25 mg/kg/injection, schedule: Q01DX009 (ip), vehicle: saline) 104 % of control; (dose: 12.5 mg/kg/injection, schedule: Q01DX009 (ip), vehicle: saline) 105 % of control.

In the case of `NC(=O)c1n[nH][nH]c1=O`, the T/C reads like this: under setting [9], 115 % of control; under setting [10], 105 % of control; under setting [11], 115 % of control.

`O=C1c2ccncc2C(=O)c2c1[nH]c1ccccc21`: the T/C is 97 % of control (dose: 7.5 mg/kg/injection, schedule: Q04DX002 (ip), vehicle: Klucel (hydroxypropylcellulose) (HPC)); 95 % of control (dose: 15.0 mg/kg/injection, schedule: Q04DX002 (ip), vehicle: Klucel (hydroxypropylcellulose) (HPC)); 90 % of control and 97 % of control (dose: 30.0 mg/kg/injection, schedule: Q04DX002 (ip), vehicle: Klucel (hydroxypropylcellulose) (HPC)); 95 % of control (dose: 60.0 mg/kg/injection, schedule: Q04DX002 (ip), vehicle: Klucel (hydroxypropylcellulose) (HPC)).

On to `CS(C)=NC(=Nc1ccccc1)c1ccccc1`, for which the T/C is 101 % of control (dose: 50.0 mg/kg/injection, schedule: Q04DX003 (ip), vehicle: saline with Tween-80) and 104 % of control (dose: 100.0 mg/kg/injection, schedule: Q04DX003 (ip), vehicle: saline with Tween-80).

Take `Cc1c2c(c(O)c3c(O)cccc13)C(=O)C1(O)C(O)=C(C(=O)NCNc3ccc(C(N)=O)cn3)C(=O)C(N(C)C)C1C2` (configuration not stated): the T/C (dose: 3.12 mg/kg/injection, schedule: Q01DX005 (ip), vehicle: saline) was 111 % of control; the T/C (dose: 6.25 mg/kg/injection, schedule: Q01DX005 (ip), vehicle: saline) is 114 % of control and 117 % of control; the T/C (dose: 12.5 mg/kg/injection, schedule: Q01DX005 (ip), vehicle: saline) was 114 % of control; the T/C (dose: 25.0 mg/kg/injection, schedule: Q01DX005 (ip), vehicle: saline) was 120 % of control.

On to `CCCCCCCCCCCCCC[N+]1(CC)CCCC1`, for which the T/C (dose: 6.25 mg/kg/injection, schedule: Q04DX002 (ip), vehicle: saline) was 119 % of control and the T/C (dose: 12.5 mg/kg/injection, schedule: Q04DX002 (ip), vehicle: saline) was 86 % of control.

For the molecule `Cn1c(=O)c2[nH]cnc2n(C)c1=O` (tested in a mixture with another compound), the T/C by setting is: under setting [12], 104 % of control; under setting [13], 95 % of control; under setting [14], 104 % of control.

`CC=C(C)c1ccccc1` (mixture of isomers): the T/C (dose: 25.0 mg/kg/injection, schedule: Q01DX009 (ip), vehicle: saline with Tween-80) was 104 % of control; the T/C under setting [12] was 100 % of control; the T/C under setting [13] was 103 % of control; the T/C under setting [14] is 105 % of control.

On to `COc1cc(C(=O)Nc2cccc(Cl)c2Cl)cc(OC)c1OC`, for which the T/C is 104 % of control under setting [6], 96 % of control under setting [7] and 92 % of control under setting [8].
